Test results published in paper PMC6133161, “Thiazoles with cyclopropyl fragment as antifungal, anticonvulsant, and anti-Toxoplasma gondii agents: synthesis, toxicity evaluation, and molecular docking study” (Medicinal Chemistry Research, 2018).
≈ marks a conversion by molar mass, not a printed value.

What was measured:
[1] = system: Toxoplasma gondii RH strain; assay: [3H]-uracil incorporation assay in VERO host cells; conditions: Toxoplasma gondii, Vero; for activity at 0.98 µg/mL / activity at 1.95 µg/mL / activity at 3.91 µg/mL / activity at 7.81 µg/mL / activity at 15.63 µg/mL / activity at 20 µg/mL / activity at 25 µg/mL / activity at 31.25 µg/mL: read-out: Proliferation of Toxoplasma gondii RH strain ± SD
[2] = system: maximal electroshock seizures; assay: Maximal electroshock seizure (MES) test; format: in vivo, mouse; conditions: Mus musculus; MES test, mice, 100 mg/kg ip; read-out: X/Y number of mice protected (X) per number of mice tested (Y) (converted)
Procedure: For in vivo tests that assessed anticonvulsant properties of the test compounds 3a–3j adult male Albino Swiss (CD-1) mice weighing between 18 and 22 g were used. The animals were housed in groups of ten mice per cage at room temperature of 22 ± 2 °C, under light/dark (12:12) cycle. The animals had free access to food and tap water before the experiments. The ambient temperature of the experimental room and humidity (50 ± 10%) were kept consistent throughout all the tests. For behavioral experiments the animals were selected randomly. Each experimental group consisted of 4–8 animals/dose. The experiments were performed between 9 AM and 2 PM. Immediately after the in vivo assay the animals were euthanized by cervical dislocation. All procedures were approved by the Local Ethics Committee of the Jagiellonian University in Krakow (34/2018, 1.02.2018)) and the treatment of animals was in full accordance with ethical standards laid down in respective Polish and EU regulations (Directive No. 86/609/EEC). For in vivo tests the compounds 3a–3j were prepared in 1% Tween 80 solution (POCH, Poland) and they were administered by the intraperitoneal route. Control mice received 1% Tween 80. Pentylenetetrazole (PTZ), pilocarpine hydrochloride and scopolamine butylbromide were provided by Sigma Aldrich (Poland). For the tests they were prepared in 0.9% saline (Polfa Kutno, Poland). PTZ and pilocarpine were administered 60 min after the test compound or vehicle. To assess anticonvulsant properties of the test compounds anticonvulsant screening was conducted. Four assays were used: PTZ, maximal electroshock seizure (MES), 6-Hz and pilocarpine tests. In these assays the dose of 100 mg/kg was chosen as a starting dose. If it turned out to be effective, a lower dose (30 mg/kg) was also tested. MES test was performed according to a method previously described (Sałat et al. [2005]). In this test vehicle-treated mice and drug-treated mice received a stimulus of 25 mA delivered by an electroshock generator (Hugo Sachs rodent shocker, Germany) to induce maximal seizures (tonic extension) of hind limbs. Electroconvulsions were produced with the use of auricular electrodes and the stimulus duration was 0.2 s. Tonic extension of the hind limbs was regarded as the endpoint for this procedure.

C. sake = assay: Broth microdilution MIC/MFC, clinical isolate; format: cell-based; conditions: Fermentozyma sake, C. sake clinical strain; for MFC: read-out: MFC; for MIC: read-out: MIC
Text: (§1) In the study of antifungal activity of the compounds 3a–3j, 15 clinical strains of different species of yeasts from Candida species, namely C. albicans, C. dubliniensis C. famata, C. inconspicua, C. krusei, C. tropicalis, C. glabrata, C. lambica, C. kefyr, C. lusitaniae, C. parapsilosis, C. guilliermondii, C. lusitaniae, C. pulcherrima and C. sake were also used. These fungi were isolated by the author (from Department of Pharmaceutical Microbiology of Medical University in Lublin, Poland) from different clinical materials, e.g., from upper respiratory tract of hospitalized patients including cancer patients (i.e., with non-small cell lung cancer or hematological malignancies). Some patients were after pre-operative or post-operative chemotherapy (treated with etoposide or cis-platin given in doses according to the standard procedures), patients with chronic hepatitis C (undergoing peginterferon and ribavirin therapy or without antiviral therapy), patients with diabetes, elderly people, aged of 65 years old or older, staying in close population, such as a care centre and people staying outside the home care. The Ethical Committee of the Medical University of Lublin approved the study protocol (No. KE-0254/75/2011). The isolates were identified by standard diagnostic methods—biochemical microtest, e.g., API 20C AUX, ID 32C, API Candida (bioMérieux) on the basis of assimilation of various substrates. All the used microbial cultures were first subcultured on nutrient agar or Sabouraud agar for bacteria and fungi, respectively. The RPMI 1640 with MOPS (for fungi) were inoculated with the suspensions of fungal species. Microbial suspensions were prepared in sterile saline (0.85% NaCl) with an optical density of 0.5 McFarland standard scale (Wiegand et al. [2008]). Samples containing examined compounds were dissolved in dimethyl sulfoxide (DMSO). Furthermore, fungal suspensions were put onto Petri dishes with solid media containing 2 mg/ml of the tested compounds followed incubation under appropriate conditions. The inhibition of microbial growth was judged by comparison with a control culture prepared without any sample tested. Nystatin (Sigma) was used as a reference antifungal compound. Subsequently MIC minimal inhibitory concentration (MIC) of the compounds was examined by the microdilution broth method, using their two-fold dilutions in RPMI 1640 broth with MOPS prepared in 96-well polystyrene plates. Final concentrations of the compounds ranged from 1000 to 0.0038 µg/ml. Microbial suspensions were prepared in sterile saline with an optical density of 0.5 McFarland standard. Next fungal suspension was added per each well containing broth and various concentrations of the examined compounds. After incubation, the MIC was assessed spectrophotometric as the lowest concentration of the samples showing complete fungal growth inhibition. Appropriate DMSO, growth and sterile controls were carried out. The medium with no tested substances was used as a control (Wiegand et al. [2008]). The minimal fungicidal concentration (MFC) are defined as the lowest concentration of the compounds that is required to kill a particular fungal species. MFC was determined by removing the culture using for MIC determinations from each well and spotting onto appropriate agar medium. The plates were incubated. The lowest compounds concentration with no visible growth observed was assessed as a fungicidal concentration. All the experiments were repeated three times and representative data are presented.
(§2) The MFC/MIC ratios were calculated in order to determine fungicidal (MFC/MIC ≤ 4) or fungistatic (MFC/MIC > 4) effect of the tested compounds (O’Donnell et al. [2010]).

C. lusitaniae = assay: Broth microdilution MIC/MFC, clinical isolate; format: cell-based; conditions: Clavispora lusitaniae, C. lusitaniae clinical strain; for MFC: read-out: MFC; for MIC: read-out: MIC
Text: as §1, §2

C. dubliniensis = assay: Broth microdilution MIC/MFC, clinical isolate; format: cell-based; conditions: Candida dubliniensis, C. dubliniensis clinical strain; for MFC: read-out: MFC; for MIC: read-out: MIC
Text: as §1, §2

C. albicans = assay: Broth microdilution MIC/MFC, clinical isolate; format: cell-based; conditions: Candida albicans, C. albicans clinical strain; for MFC: read-out: MFC; for MIC: read-out: MIC
Text: as §1, §2

C. famata = assay: Broth microdilution MIC/MFC, clinical isolate; format: cell-based; conditions: Debaryomyces hansenii, C. famata clinical strain; for MFC: read-out: MFC; for MIC: read-out: MIC
Text: as §1, §2

C. krusei = assay: Broth microdilution MIC/MFC, clinical isolate; format: cell-based; conditions: Pichia kudriavzevii, C. krusei clinical strain; for MFC: read-out: MFC; for MIC: read-out: MIC
Text: as §1, §2

C. pulcherrima = assay: Broth microdilution MIC/MFC, clinical isolate; format: cell-based; conditions: C. pulcherrima clinical strain
Text: as §1, §2

C. guilliermondii = assay: Broth microdilution MIC/MFC, clinical isolate; format: cell-based; conditions: Meyerozyma guilliermondii, C. guilliermondii clinical strain; for MFC: read-out: MFC; for MIC: read-out: MIC
Text: as §1, §2

| MIC (C. sake) [µg/mL] | MIC (C. lusitaniae) [µg/mL] | MIC (C. dubliniensis) [µg/mL] | MIC (C. albicans) [µg/mL] | MIC (C. famata) [µg/mL] | MIC (C. krusei) [µg/mL] | MIC (C. guilliermondii) [µg/mL] | Compound | activity at 0.98 µg/mL [1] [%] | activity at 1.95 µg/mL [1] [%] | activity at 3.91 µg/mL [1] [%] | activity at 7.81 µg/mL [1] [%] | activity at 15.63 µg/mL [1] [%] | responders at 100 mg/kg [2] [%] | MFC (C. sake) [µg/mL] | MFC (C. lusitaniae) [µg/mL] | MFC (C. dubliniensis) [µg/mL] | MFC (C. albicans) [µg/mL] | MFC (C. famata) [µg/mL] | MFC (C. krusei) [µg/mL] | MFC (C. guilliermondii) [µg/mL] | other results |
| --- | --- | --- | --- | --- | --- | --- | --- | --- | --- | --- | --- | --- | --- | --- | --- | --- | --- | --- | --- | --- | --- |
| 0.06 (≈ 0.186 µM) | 0.98 (≈ 3.04 µM) | 0.06 (≈ 0.186 µM) | 0.12 (≈ 0.372 µM) | 0.12 (≈ 0.372 µM) | 0.24 (≈ 0.745 µM) | 0.12 (≈ 0.372 µM) | Brc1ccc(-c2csc(N/N=C/C3CC3)n2)cc1 [Compound 3b, (E)-4-(4-Bromophenyl)-2-(2-(cyclopropylmethylene)hydrazinyl)thiazole] | 85.8 ± 10.6 | 99.3 ± 6.08 | 107 ± 10.2 | 111 ± 10.1 | – | 37.5 | 0.24 (≈ 0.745 µM) | 1.95 (≈ 6.05 µM) | 0.06 (≈ 0.186 µM) | 1.95 (≈ 6.05 µM) | 0.98 (≈ 3.04 µM) | 0.48 (≈ 1.49 µM) | 0.48 (≈ 1.49 µM) | – |
| 3.91 (≈ 15 µM) | 0.98 (≈ 3.75 µM) | 1.95 (≈ 7.46 µM) | 0.98 (≈ 3.75 µM) | 7.81 (≈ 29.9 µM) | 0.98 (≈ 3.75 µM) | 1.95 (≈ 7.46 µM) | Fc1ccc(-c2csc(N/N=C/C3CC3)n2)cc1 [Compound 3a, (E)-2-(2-(Cyclopropylmethylene)hydrazinyl)-4-(4-fluorophenyl)thiazole] | 95.4 ± 2.41 | 97.9 ± 7.49 | 96.16 ± 0.61 | 84.89 ± 0.78 | 49.2 ± 3.59 | 37.5 | 15.6 (≈ 59.8 µM) | 3.91 (≈ 15 µM) | 3.91 (≈ 15 µM) | 3.91 (≈ 15 µM) | 62.5 (≈ 239 µM) | 1.95 (≈ 7.46 µM) | 31.2 (≈ 120 µM) | IC50 ([1]; read-out: IC50 anti-Tg): 18.1 µg/mL (≈ 69.2 µM); activity at 20 µg/mL [1]: 45.6 ± 5.64%; activity at 25 µg/mL [1]: 42.2 ± 0.91%; activity at 31.25 µg/mL [1]: 28.2 ± 5.7% |

| Compound | MIC (C. sake) [µg/mL] | MIC (C. lusitaniae) [µg/mL] | MIC (C. dubliniensis) [µg/mL] | MIC (C. albicans) [µg/mL] | MIC (C. famata) [µg/mL] | MIC (C. krusei) [µg/mL] | MIC (C. guilliermondii) [µg/mL] | activity at 0.98 µg/mL [1] [%] | activity at 1.95 µg/mL [1] [%] | activity at 3.91 µg/mL [1] [%] | activity at 7.81 µg/mL [1] [%] | activity at 15.63 µg/mL [1] [%] | responders at 100 mg/kg [2] [%] | MFC (C. sake) [µg/mL] | MFC (C. lusitaniae) [µg/mL] | MFC (C. dubliniensis) [µg/mL] | MFC (C. albicans) [µg/mL] | MFC (C. famata) [µg/mL] | MFC (C. krusei) [µg/mL] | MFC (C. guilliermondii) [µg/mL] | other results |
| --- | --- | --- | --- | --- | --- | --- | --- | --- | --- | --- | --- | --- | --- | --- | --- | --- | --- | --- | --- | --- | --- |
| COc1ccc(-c2csc(N/N=C/C3CC3)n2)cc1 [Compound 3f, (E)-2-(2-(Cyclopropylmethylene)hydrazinyl)-4-(4-methoxyphenyl)thiazole] | 0.06 (≈ 0.219 µM) | 0.12 (≈ 0.439 µM) | 0.015 (≈ 0.0549 µM) | 0.24 (≈ 0.878 µM) | 0.48 (≈ 1.76 µM) | 0.015 (≈ 0.0549 µM) | 0.48 (≈ 1.76 µM) | 89.61 ± 0.77 | 84.2 ± 5.47 | 79.2 ± 6.07 | 86.2 ± 6.35 | 63 ± 4.88 | 50 | 7.81 (≈ 28.6 µM) | 0.48 (≈ 1.76 µM) | 0.06 (≈ 0.219 µM) | 0.98 (≈ 3.59 µM) | 7.81 (≈ 28.6 µM) | 0.015 (≈ 0.0549 µM) | 7.81 (≈ 28.6 µM) | activity at 20 µg/mL [1]: 58.5 ± 3.72%; activity at 25 µg/mL [1]: 57.8 ± 6.09%; activity at 31.25 µg/mL [1]: 68 ± 5.37%; MFC (C. pulcherrima; read-out: MFC): > 1000 µg/mL; MIC (C. pulcherrima; read-out: MIC): 31.2 µg/mL (≈ 114 µM) |
